Experimental data from patent publication EP0016371A1, “Urea derivatives, process and intermediates for their preparation, medicaments containing such a urea derivative and its therapeutical use” (F. HOFFMANN-LA ROCHE & CO. Aktiengesellschaft, priority 1979, dated 1980).

Key:
Type in all cases: in vivo
Füllinsdorfer Ratten = assay: Conflict test in rats (single-lever Skinner box, food pellet reward combined with foot shock); conditions: Rattus norvegicus; female rats, by gavage half an hour before the one-hour main test, Wilcoxon test vs. saline pretreatment; read-out: erste signifikant anxiolytisch wirksame Dosis
Procedure: Die Testapparatur ist eine Eintasten-Skinnerbox mit Futterpillengeber.
Während 3 einstündigen Vorversuchen (an drei verschiedenen Tagen) werden hungrige weibliche Füllinsdorfer Ratten (SPF, 190-230 g) darauf trainiert, die Tast des Futterpillengebers zu drücken, um Futterpillen von je 45 mg zu erhalten (jeder Tastendruck wird belohnt); im dritten Vorversuch erreichen die Ratten eine Rate von 150-200 Tastenbetätigungen pro Stunde.
In einem vierten Vorversuch wird jede durch Tastendruck hervorgerufene Pillenbelohnung mit einem kurzen elektrischen Fuss-Schock (1,0 mA) kombiniert. Die Ratten, welche mit dieser Konflikt-Situation konfrontiert sind, betätigen anfangs noch etwa 5-10mal die Drucktaste und hören dann aus Angst gänzlich auf.
In einem fünften Vorversuch können die Ratten die Taste des Futterpillengebers wieder ohne zusätzlichen Fuss-Schock drücken, wobei wiederum eine Rate von 150-200 Tastenbetätigungen pro Stunde erreicht wird.
In einem sechsten Vorversuch wird eine Selektion der Testtiere durchgeführt. Den Testtieren werden eine halbe Stunde vor Beginn dieses Vorversuches peroral 10 mg/kg Chlordiazepoxid verabreicht; jede Pillenbelohnung wird wiederum mit einem Fuss-Schock kombiniert (Konflikt). Nur Ratten, die in diesem Vorversuch eine Rate von 20-50 Tastenbetätigungen erreichen (vgl. die 5-10 Tastenbetätigungen im vierten Vorversuch) werden als geeignete Testtiere für die Prüfung von potentiellen Anxiolytika behalten. Die Eliminationsrate in diesem Vorversuch beträgt 5%.
Im Hauptversuch werden zur Prüfung der potentiellen Anxiolytika pro Substanz und pro Dosis in der Regel 8 Ratten eingesetzt. Eine unbehandelte Kontrollgruppe ist nicht erforderlich, da jedes Tier als seine eigene Kontrolle dient. Die Testsubstanzen, welche in einem Gemisch von destilliertem Wasser (10 ml) und Tween 80 (2 Tropfen) gelöst oder suspendiert sind, werden den Tieren mit Hilfe einer Schlundsonde eine halbe Stunde vor dem einstündigen Hauptversuch verabreicht. […]

Maus [1] = assay: Maximal electroshock test; conditions: Mus musculus, maximaler Elektroschock
Maus [2] = assay: Antipentetrazole test; conditions: Antipentetrazoltest, bis zu einer Dosis von 300 mg/kg
From the text: (§1) Bei den oben genannten Versuchen handelt es sich um allgemein bekannte Standardmethoden zur Bestimmung von sedierender und muskelrelaxierender Wirkung.

Maus [3] = assay: 3-Mercaptopropionic acid test; conditions: Mus musculus, 3-Mercaptopropionsäure-Test
From the text: as §1

Maus [4] = assay: Chimney test; conditions: Kamintest, bis zu einer Dosis von 300 mg/kg
From the text: as §1

Maus [5] = assay: Rotating rod test; conditions: Versuch am Rotierstab, bis zu einer Dosis von 300 mg/kg
From the text: as §1

Structure (SMILES)	minimal effective dose (Füllinsdorfer Ratten)	ED50 (Maus [1])	Aktivität (Maus [2])	ED50 (Maus [3])	Aktivität (Maus [4])	Aktivität (Maus [5])
CN1CC(=O)N=C1NC(=O)Nc1cccs1 [1-(1-Methyl-4-oxo-2-imidazolin-2-yl)-3-(2-thienyl)harnstoff]	30 mg/kg	–	–	–	–	–
CN1CC(=O)N=C1NC(=O)Nc1ccsc1 [1-(1-Methyl-4-oxo-2-imidazolin-2-yl)-3-(3-thienyl)harnstoff]	10 mg/kg	–	–	–	–	–
CN1CC(=O)N=C1NC(=O)Nc1csc(Cl)c1 [1-(5-Chlor-3-thienyl)-3-(1-methyl-4-oxo-2-imidazolin-2-yl)harnstoff]	3 mg/kg	> 100 mg/kg	keinerlei Aktivität	76 mg/kg	keinerlei Aktivität	keinerlei Aktivität
